Laboratory results published in patent US12667549B2 (DOMPÉ FARMACEUTICI S.P.A., priority 2020, dated 2026).
Entries after “also recorded” stand apart in the source; their conditions may differ.

What was measured:
osteoarthritis = conditions: prolonged administration; cited from earlier work
[1] = in vivo; cited from earlier work
[2] = system: carrageenan-induced rat paw edema; test: Inflammatory pain in rats induced by carrageenan intraplantar injection (paw edema); assay type: in vivo, Male Wistar rats; conditions: oral capsules 1 h before 1% carrageenan; KL Co-xx 47.1 mg/kg, Gabapentin 20.4 mg/kg, admixture 47.1+20.4 mg/kg; FIGS. 4 and 5
Text: Rat chow and tap water were available ad libitum. […] Animal care was in compliance with Italian Legislative Decree (D.L. 116/92) and European Commission Directive (O.J. of E.C. L358/1, 18/12/86) regulations on the protection of laboratory animals. All efforts were made to minimize animal suffering and the number of animals used.
Edema was expressed as the mean increase in paw volume (ml) relative to control animals.

[3] = cited from earlier work
[4] = Plasma and brain levels of Gabapentin after oral administration as capsules; conditions: male, Sprague-Dawley, rat, in vivo, 2 capsules

Q: With `NCC1(CC(=O)O)CCCCC1` [Gabapentin] as the molecule, how does the “start of therapeutic effect in osteoarthritis (duration of administration)” value (osteoarthritis) read?
A: 3 months

Q: What about the “side effect: ataxia” value [1] of the same molecule?
A: 13%

Q: What about the “side effect: dizziness” value [1] of the same molecule?
A: 18%

Q: What about the “side effect: fatigue” value [1] of the same molecule?
A: 11%

Q: And the “side effect: somnolence” value [1]?
A: 20%

Q: And the “anti-inflammatory effect on carrageenan-evoked edema (paw volume, % inhibition)” value [2]?
A: less effective; also recorded: little active on inflammatory pain

Q: And the “time of utmost level in plasma” value ([3]; after oral administration)?
A: 3 to 4 h

Q: What about the “binding to plasma proteins” value ([3]; in vivo) of the same molecule?
A: does not attach to plasma proteins

Q: And the hepatic metabolism ([3]; in vivo)?
A: neither inhibited nor metabolized by hepatic enzymes

Q: And the excretion half-life ([3]; renal excretion)?
A: roughly 6 hours

Q: And the Kp at 2 h [4]?
A: 0.378
